From patent publication US5948916A, “Arylthiadiazole derivative and antiviral agent containing the same” (priority 1994, dated 1999)
In brackets after ≈: the same amount, converted by molar mass. Where two headings read alike, the source gives them in different places.

Experiments:
[1] = Cytotoxicity in MT-4 cells incubated without infection by HIV; assay type: cell-based; details: human; MT-4 cells without infection by HIV, 37° C., 5 days, MTT method; read-out: CC50 (compound concentration which causes death of 50% of the MT-4 cells)
Method: (§1) Virucidal test aqainst HIV:
(§2) In RPMI1640 culture medium containing 20 mM HEPES buffer solution, 10% bovine fetus serum, and 20 μg/mL gentamycin, 3×10^4 cells of MT-4 (which will be killed by infection with HIV) were infected with HIV at a rate of 0.02 HIV per cell. To the fractions of the culture, predetermined portions of a sample containing the thiadiazole derivative of the compound No. shown in Table 27 and 28 were added, and the culture fractions were incubated at 37° C. After incubation for 5 days, living cells were measured by the MTT method to derive the compound concentration (EC50) which is effective to protects 50% of the MT-4 cells from death by HIV. Separately, the MT-4 cells were incubated in the same manner without infection by HIV, and the compound concentration (CC50) which causes death of 50% of the MT-4 cells. The ratio of CC50 /EC50 is the selectivity index (S.I.).

HIV = experiment: Virucidal test against HIV (protection of HIV-infected MT-4 cells, MTT method); assay type: cell-based; details: for S.I. (selectivity index, ratio CC50/EC50): CC50/EC50, MT-4 cells; for EC50: Human immunodeficiency virus 1, MT4, 120 h, read-out: EC50 (compound concentration effective to protect 50% of the MT-4 cells from death by HIV)
Method: as §1, §2

[2] = MT-4 cells, 0.02 HIV per cell, 37° C., 5 days, MTT method

SMILES | CC50 at 120 h [1] | S.I. (selectivity index, ratio CC50/EC50) (HIV) | EC50 (HIV) | EC50 (HIV; [2])
CCCN(C)C(=O)Oc1nsnc1-c1c(Cl)ccc(C(=O)OC)c1Cl [Compound 91, N-Methyl-N-propyl [3-(2,6-dichloro-3-methoxycarbonylphenyl)-1,2,5-thiadiazol-4-yl] carbamate] | 9.1 mg/L (≈ 22.5 µM) | 144 | 0.063 mg/L (≈ 0.156 µM) | –
CCCN(C)C(=O)Oc1nsnc1-c1c(Cl)ccc(N)c1Cl [Compound 71, N-Methyl-N-propyl [3-(3-amino-2,6-dichlorophenyl)-1,2,5-thiadiazol-4-yl] carbamate] | 4.7 mg/L (≈ 13 µM) | 2350 | 0.002 mg/L (≈ 0.00554 µM) | –
Clc1cccc(Cl)c1-c1nsnc1OCCBr [Compound 160, 3-(2-bromoethoxy)-4-(2,6-dichlorophenyl)-1,2,5-thiadiazole] | 4.8 mg/L (≈ 13.6 µM) | 15 | – | 0.32 mg/L (≈ 0.904 µM)
CN(CCC#N)C(=O)Oc1nsnc1-c1c(Cl)cccc1Cl [Compound 219, N-(2-cyanoethyl)-N-methyl [3-(2,6-dichlorophenyli-1,2,5-thiadiazol-4-yl] carbamate] | 46 mg/L (≈ 129 µM) | 2556 | 0.018 mg/L (≈ 0.0504 µM) | –
COCCOCOc1nsnc1-c1c(Cl)cccc1Cl [Compound 157] | 46 mg/L (≈ 137 µM) | 128 | – | 0.36 mg/L (≈ 1.07 µM)
CN(CCC(N)=O)C(=O)Oc1nsnc1-c1c(Cl)cccc1Cl [Compound 223, N-(2-carbamoylethyl)-N-methyl [3-(2,6-dichlorophenyl)-1,2,5-thiadiazol-4-yl] carbamate] | > 100 mg/L | > 38 | 2.6 mg/L (≈ 6.93 µM) | –
CCOC(=O)CCN(C)C(=O)Oc1nsnc1-c1c(Cl)cccc1Cl [Compound 224, N-[2-(ethoxycarbonyl)ethyl]-N-methyl [3-(2,6-dichlorophenyl)-1,2,5-thiadiazol-4-yl] carbamate] | 50 mg/L (≈ 124 µM) | 385 | 0.13 mg/L (≈ 0.322 µM) | –
CCN(CC)C(C)=Nc1nsnc1-c1c(Cl)cccc1Cl [Compound 131, N^1-diethyl-N^2-[3-(2,6-dichlorophenyl)-1,2,5-thiadiazol-4-yl]acetamidine] | 5.4 mg/L (≈ 15.7 µM) | 19 | – | 0.29 mg/L (≈ 0.845 µM)
CCCN(C)CCOc1nsnc1-c1c(Cl)cccc1Cl [Compound 161, 3-(2,6-dichlorophenyl)-4-[2-(N-methyl-N-propylamino)ethoxy]-1,2,5-thiadiazole] | 8.3 mg/L (≈ 24 µM) | 10 | – | 0.8 mg/L (≈ 2.31 µM)
CCCN(C)C=Nc1nsnc1-c1c(Cl)cccc1Cl [Compound 128, N^1-methyl-N^1-propyl-N^2-[3-(2,6-dichlorophenyl)-1,2,5-thiadiazol-4-yl]formamidine] | 9.2 mg/L (≈ 27.9 µM) | 48 | – | 0.19 mg/L (≈ 0.577 µM)
Clc1cccc(Cl)c1-c1nsnc1OCc1cccnc1 [Compound 146] | 1.9 mg/L (≈ 5.62 µM) | 6 | – | 0.3 mg/L (≈ 0.887 µM)
CN(C)C(=O)Oc1nsnc1-c1c(Cl)ccc(N)c1Cl [Compound 70, N,N-dimethyl [3-(3-amino-2,6-dichlorophenyl)-1,2,5-thiadiazol-4-yl] carbamate] | 9.4 mg/L (≈ 28.2 µM) | 362 | 0.026 mg/L (≈ 0.078 µM) | –
CN(CC#N)C(=O)Oc1nsnc1-c1c(Cl)cccc1Cl [Compound 218, N-(cyanomethyl)-N-methyl [3-(2,6-dichlorophenvl)-1,2,5-thiadiazol-4-yl] carbamate] | 64 mg/L (≈ 186 µM) | 168 | 0.38 mg/L (≈ 1.11 µM) | –
CSCOc1nsnc1-c1c(Cl)cccc1Cl [Compound 155] | > 100 mg/L | > 270 | – | 0.37 mg/L (≈ 1.2 µM)
CCN(C=Nc1nsnc1-c1c(Cl)cccc1Cl)CC [Compound 130, N^1-diethyl-N^2 - [3-(2,6-dichlorophenyl)-1,2,5-thiadiazol-4-yl]formamidine] | 14 mg/L (≈ 42.5 µM) | 1000 | – | 0.014 mg/L (≈ 0.0425 µM)
O=[N+]([O-])c1ccccc1COc1nsnc1-c1c(Cl)cccc1Cl [Compound 149] | 8.6 mg/L (≈ 22.5 µM) | 5 | – | 1.7 mg/L (≈ 4.45 µM)
CN(CCO)C(=O)Oc1nsnc1-c1c(Cl)cccc1Cl [Compound 220, N-(2-Hydroxyethyl)-N-methyl [3-(2,6-dichlorophenyl)-1,2,5-thiadiazol-4-yl] carbamate] | 63 mg/L (≈ 181 µM) | 18 | 3.5 mg/L (≈ 10.1 µM) | –
CCCN(C)C(=O)Cc1nsnc1-c1ccccc1Cl [Compound 202, N-methyl-N-propyl [3-(2-chlorophenyl)-1,2,5-thiadiazol-4-yl]acetamide] | 18 mg/L (≈ 58.1 µM) | 7 | – | 2.5 mg/L (≈ 8.07 µM)
CN(C)C=Nc1nsnc1-c1c(Cl)cccc1Cl [Compound 127, N^1 -Dimethyl-N^2-[3-(2,6-dichlorophenyl)-1,2,5-thiadiazol-4-yl] formamidine] | 31 mg/L (≈ 103 µM) | 21 | – | 1.5 mg/L (≈ 4.98 µM)
CCCN(C)C(=O)Oc1nsnc1-c1c(Cl)ccc(C(N)=O)c1Cl [Compound 93, N-methyl-N-propyl [3-(3-carbamoyl-2,6-dichlorophenyl)-1,2,5-thiadiazol-4-yl] carbamate] | 65 mg/L (≈ 167 µM) | 59 | 1.1 mg/L (≈ 2.83 µM) | –
CCCN(C)C(=O)c1nsnc1-c1ccccc1Cl [Compound 195, N-methyl-N-propyl 4-(2-chlorophenyl)-1,2,5-thiadiazole-3-carboxamide] | 37 mg/L (≈ 125 µM) | 25 | – | 1.5 mg/L (≈ 5.07 µM)
COCCOc1nsnc1-c1c(Cl)cccc1Cl [Compound 159] | 11 mg/L (≈ 36 µM) | 5 | – | 2.2 mg/L (≈ 7.21 µM)
CN(CCCC(=O)O)C(=O)Oc1nsnc1-c1c(Cl)cccc1Cl [Compound 222, N-(3-carboxypropyl)-N-methyl [3-(2,6-dichlorophenyl)-1,2,5-thiadiazol-4-yl] carbamate] | > 100 mg/L | > 71 | 1.4 mg/L (≈ 3.59 µM) | –
CN(C)C(=O)Oc1nsnc1-c1cc(N)ccc1Cl [Compound 21, N,N-Dimethyl [3-(5-amino-2-chlorophenyl)-1,2,5-thiadiazol-4-yl] CARBAMATE] | 36 mg/L (≈ 121 µM) | 240 | 0.15 mg/L (≈ 0.502 µM) | –
CCCN(C)C(=O)Oc1nsnc1-c1c(Cl)ccc(C#N)c1Cl [Compound 87, N-Methyl-N-propyl [3-(2,6-dichloro-3-cyanophenyl)-1,2,5-thiadiazol-4-yl] carbamate] | 23 mg/L (≈ 62 µM) | 7667 | 0.003 mg/L (≈ 0.00808 µM) | –
Clc1cccc(Cl)c1-c1nsnc1OCc1ccccn1 [Compound 145] | 2.7 mg/L (≈ 7.98 µM) | 39 | – | 0.07 mg/L (≈ 0.207 µM)
CN(C)S(=O)(=O)Oc1nsnc1-c1c(Cl)cccc1Cl [Compound 138] | 9.9 mg/L (≈ 27.9 µM) | 9 | – | 1.1 mg/L (≈ 3.11 µM)
CCCN(C)C(=O)Oc1nsnc1-c1cc(N)ccc1Cl [Compound 22, N-Methyl-N-propyl [3-(5-amino-2-chlorophenyl)-1,2,5-thiadiazol-4-yl] carbamate] | 22 mg/L (≈ 67.3 µM) | 1048 | 0.021 mg/L (≈ 0.0643 µM) | –
COCOc1nsnc1-c1c(Cl)cccc1Cl [Compound 156] | 43 mg/L (≈ 148 µM) | 24 | – | 1.8 mg/L (≈ 6.18 µM)
CCCN(C)C(=O)Oc1nsnc1-c1c(F)ccc(N)c1Cl [Compound 99, N-Methyl-N-propyl [3-(3-amino-2-chloro-6-fluorophenyl)-1,2,5-thiadiazole-4-yl] carbamate] | 22 mg/L (≈ 63.8 µM) | 2750 | 0.008 mg/L (≈ 0.0232 µM) | –
